# Assays:
# BRM = BRM (Homo sapiens, UniProt P51531); experiment: ATPase catalytic activity of BRM (ADP-Glo in vitro biochemical assay)
# BRG-1 = BRG-1 (Homo sapiens, UniProt P51532); experiment: ATPase catalytic activity of BRG-1 (ADP-Glo in vitro biochemical assay); settings: for BRG1 Max % Inhibition: Table 5
# Chain of BRG-1 (P51532 whole entry): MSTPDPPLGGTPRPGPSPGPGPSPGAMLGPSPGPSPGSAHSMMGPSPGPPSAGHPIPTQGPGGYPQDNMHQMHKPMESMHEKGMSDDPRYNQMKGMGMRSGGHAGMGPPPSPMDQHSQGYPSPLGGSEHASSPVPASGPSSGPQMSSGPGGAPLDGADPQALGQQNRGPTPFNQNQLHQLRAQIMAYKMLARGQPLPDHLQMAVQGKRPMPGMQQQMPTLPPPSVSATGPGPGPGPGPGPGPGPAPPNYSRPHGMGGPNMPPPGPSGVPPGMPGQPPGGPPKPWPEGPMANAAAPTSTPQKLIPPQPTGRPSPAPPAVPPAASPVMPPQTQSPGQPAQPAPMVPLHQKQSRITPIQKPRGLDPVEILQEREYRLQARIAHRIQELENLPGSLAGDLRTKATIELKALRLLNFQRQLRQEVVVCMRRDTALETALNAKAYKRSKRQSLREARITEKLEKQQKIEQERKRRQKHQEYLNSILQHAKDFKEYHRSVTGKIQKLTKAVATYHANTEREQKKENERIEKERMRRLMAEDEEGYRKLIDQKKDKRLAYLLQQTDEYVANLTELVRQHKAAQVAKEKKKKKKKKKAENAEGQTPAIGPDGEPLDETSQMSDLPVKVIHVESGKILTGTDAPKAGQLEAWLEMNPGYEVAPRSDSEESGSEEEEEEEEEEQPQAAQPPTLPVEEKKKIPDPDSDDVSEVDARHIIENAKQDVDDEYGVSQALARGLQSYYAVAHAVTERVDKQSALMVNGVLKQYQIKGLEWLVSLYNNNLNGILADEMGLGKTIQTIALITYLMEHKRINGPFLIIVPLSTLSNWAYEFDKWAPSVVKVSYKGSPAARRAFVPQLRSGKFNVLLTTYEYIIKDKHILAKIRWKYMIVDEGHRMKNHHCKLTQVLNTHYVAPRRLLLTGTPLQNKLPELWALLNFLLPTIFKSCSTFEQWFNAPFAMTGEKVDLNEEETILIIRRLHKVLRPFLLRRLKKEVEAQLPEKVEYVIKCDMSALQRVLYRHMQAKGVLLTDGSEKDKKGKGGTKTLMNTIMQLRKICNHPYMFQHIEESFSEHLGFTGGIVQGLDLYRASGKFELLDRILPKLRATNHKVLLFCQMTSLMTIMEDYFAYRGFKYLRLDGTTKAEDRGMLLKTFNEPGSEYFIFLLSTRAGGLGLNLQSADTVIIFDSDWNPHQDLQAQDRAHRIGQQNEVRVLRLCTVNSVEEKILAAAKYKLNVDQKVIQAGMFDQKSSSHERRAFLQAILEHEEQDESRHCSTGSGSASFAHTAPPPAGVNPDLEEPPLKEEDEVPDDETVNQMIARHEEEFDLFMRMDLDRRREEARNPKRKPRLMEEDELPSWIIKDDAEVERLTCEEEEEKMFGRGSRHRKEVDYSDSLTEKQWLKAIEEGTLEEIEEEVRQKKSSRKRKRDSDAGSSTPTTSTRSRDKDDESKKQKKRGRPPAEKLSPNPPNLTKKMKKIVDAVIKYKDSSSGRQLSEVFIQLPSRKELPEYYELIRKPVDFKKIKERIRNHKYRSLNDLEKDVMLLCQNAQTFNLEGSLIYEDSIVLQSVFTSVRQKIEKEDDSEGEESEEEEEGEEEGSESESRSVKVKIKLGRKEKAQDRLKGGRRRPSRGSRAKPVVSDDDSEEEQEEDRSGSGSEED
# Chain of BRM (P51531 whole entry): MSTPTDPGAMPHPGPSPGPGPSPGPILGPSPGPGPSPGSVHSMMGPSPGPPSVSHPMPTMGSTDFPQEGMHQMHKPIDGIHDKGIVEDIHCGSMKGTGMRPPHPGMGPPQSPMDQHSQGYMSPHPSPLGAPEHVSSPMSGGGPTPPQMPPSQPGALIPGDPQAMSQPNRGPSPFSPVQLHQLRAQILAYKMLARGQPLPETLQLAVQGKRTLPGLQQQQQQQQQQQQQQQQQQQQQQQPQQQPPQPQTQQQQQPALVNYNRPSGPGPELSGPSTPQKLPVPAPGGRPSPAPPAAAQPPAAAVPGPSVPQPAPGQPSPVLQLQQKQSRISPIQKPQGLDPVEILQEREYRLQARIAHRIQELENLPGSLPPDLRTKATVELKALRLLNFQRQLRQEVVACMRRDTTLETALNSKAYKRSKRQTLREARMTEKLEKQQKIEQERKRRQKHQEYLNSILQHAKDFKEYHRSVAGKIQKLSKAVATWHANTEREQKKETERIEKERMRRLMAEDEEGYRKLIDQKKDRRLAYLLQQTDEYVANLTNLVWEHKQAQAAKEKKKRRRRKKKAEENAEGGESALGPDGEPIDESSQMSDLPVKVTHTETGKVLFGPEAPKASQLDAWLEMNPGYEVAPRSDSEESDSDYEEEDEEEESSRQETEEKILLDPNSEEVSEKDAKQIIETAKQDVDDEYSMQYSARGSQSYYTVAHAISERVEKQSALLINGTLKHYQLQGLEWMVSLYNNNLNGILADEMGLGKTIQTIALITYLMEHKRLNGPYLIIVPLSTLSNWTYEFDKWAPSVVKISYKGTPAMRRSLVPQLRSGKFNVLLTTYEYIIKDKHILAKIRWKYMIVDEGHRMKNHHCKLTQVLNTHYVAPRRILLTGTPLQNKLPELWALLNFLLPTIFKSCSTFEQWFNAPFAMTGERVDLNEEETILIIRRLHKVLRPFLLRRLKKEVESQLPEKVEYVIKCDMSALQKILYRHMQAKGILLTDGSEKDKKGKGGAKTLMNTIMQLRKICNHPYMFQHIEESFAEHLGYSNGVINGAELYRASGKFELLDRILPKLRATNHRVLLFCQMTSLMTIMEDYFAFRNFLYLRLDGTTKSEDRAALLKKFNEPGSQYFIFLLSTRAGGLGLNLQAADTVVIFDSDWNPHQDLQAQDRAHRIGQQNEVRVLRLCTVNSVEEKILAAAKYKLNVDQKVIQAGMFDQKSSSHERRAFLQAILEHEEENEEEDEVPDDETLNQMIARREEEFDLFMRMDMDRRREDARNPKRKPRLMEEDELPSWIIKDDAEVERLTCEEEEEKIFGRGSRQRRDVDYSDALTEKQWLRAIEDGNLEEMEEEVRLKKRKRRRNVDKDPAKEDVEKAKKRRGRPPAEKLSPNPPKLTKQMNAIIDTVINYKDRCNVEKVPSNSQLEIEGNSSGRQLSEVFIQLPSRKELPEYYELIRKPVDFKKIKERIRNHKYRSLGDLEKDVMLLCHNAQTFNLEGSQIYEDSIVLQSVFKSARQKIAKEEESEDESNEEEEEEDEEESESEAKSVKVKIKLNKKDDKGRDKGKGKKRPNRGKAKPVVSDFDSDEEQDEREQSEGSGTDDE
Structure (SMILES),IC50 (BRM) [µM],BRM Max % Inhibition (BRM; Table 5) [%],IC50 (BRG-1) [µM],BRG1 Max % Inhibition (BRG-1) [%],BRM Max % Inhibition (BRM; Table 6) [%]
"Cc1cccc(-c2csc(NC(=O)CNC(=O)c3cccc(S(=O)(=O)N(C)C)c3)n2)c1 [Compound 1, 3-(dimethylsulfamoyl)-N-[2-[[4-(m-tolyl)thiazol-2-yl]amino]-2-oxo-ethyl]benzamide]",1 to 10,>95,1 to 10,>70,–
"CSCC[C@H](NC(=O)c1ccc(C)c(S(C)(=O)=O)c1)C(=O)Nc1nc(-c2ccccc2)cs1 [Compound 2, 4-methyl-N-[(1S)-3-methylsulfanyl-1-[(4-phenylthiazol-2-yl)carbamoyl]propyl]-3-methylsulfonyl-benzamide]",< 1,>95,1 to 10,>95,–
"CSCC[C@H](NC(=O)c1cccc(S(C)(=O)=O)c1)C(=O)Nc1nc(-c2ccccc2)cs1 [Compound 3, (S)-3-(methylsulfonyl)-N-(4-(methylthio)-1-oxo-1-((4-phenylthiazol-2-yl)amino)butan-2-yl)benzamide]",1 to 10,>95,1 to 10,>90,–
"CNC(=O)c1cccc(-c2csc(NC(=O)CNC(=O)c3cccc(S(=O)(=O)N(C)C)c3)n2)c1 [Compound 4, 3-[2-[[2-[[3-(dimethylsulfamoyl)benzoyl]amino]acetyl]amino]thiazol-4-yl]-N-methyl-benzamide]",1 to 10,>90,> 10,>70,–
"CC(=O)NCc1cccc(-c2csc(NC(=O)CNC(=O)c3cccc(S(=O)(=O)N(C)C)c3)n2)c1 [Compound 5, N-[2-[[4-[3-(acetamidomethyl)phenyl]thiazol-2-yl]amino]-2-oxo-ethyl]-3-(dimethylsulfamoyl)benzamide]",> 10,>90,> 10,>70,–
"CC(C)S(=O)(=O)c1cccc(C(=O)NCC(=O)Nc2nc(-c3ccccc3)cs2)c1 [Compound 6, 3-(isopropylsulfonyl)-N-(2-oxo-2-((4-phenylthiazol-2-yl)amino)ethyl)benzamide]",1 to 10,>90,> 10,>60,–
CN(C)S(=O)(=O)c1cccc(C(=O)NCC(=O)Nc2nc(-c3cccc(Br)c3)cs2)c1 [Compound 7],1 to 10,>90,1 to 10,>60,–
"CN(C)S(=O)(=O)c1cccc(C(=O)NCC(=O)Nc2nc(-c3cccc(C#N)c3)cs2)c1 [Compound 8, N-[2-[[4-(3-cyanophenyl)thiazol-2-yl]amino]-2-oxo-ethyl]-3-(dimethylsulfamoyl)benzamide]",1 to 10,>90,> 10,>70,–
"COC(=O)c1cccc(-c2csc(NC(=O)CNC(=O)c3cccc(S(=O)(=O)N(C)C)c3)n2)c1 [Compound 9, methyl 3-[2-[[2-[[3-(dimethylsulfamoyl)benzoyl]amino]acetyl]amino]thiazol-4-yl]benzoate]",< 1,>90,< 1,>60,–
"CN(C)S(=O)(=O)c1cccc(C(=O)NCC(=O)Nc2nc(-c3cccc(CN)c3)cs2)c1 [Compound 10, N-[2-[[4-[3-(aminomethyl)phenyl]thiazol-2-yl]amino]-2-oxo-ethyl]-3-(dimethylsulfamoyl)benzamide]",> 10,>90,> 10,>90,–
"CC(=O)NCc1ccc(-c2csc(NC(=O)CNC(=O)c3cccc(S(=O)(=O)N(C)C)c3)n2)cc1 [Compound 11, N-[2-[[4-[4-(acetamidomethyl)phenyl]thiazol-2-yl]amino]-2-oxo-ethyl]-3-(dimethylsulfamoyl)benzamide]",1 to 10,>80,> 10,>70,–
"CN(C)S(=O)(=O)c1cccc(C(=O)NCC(=O)Nc2nc(-c3ccccc3)cs2)c1 [Compound 13, 3-(dimethylsulfamoyl)-N-[2-oxo-2-[(4-phenylthiazol-2-yl)amino]ethyl]benzamide]",1 to 10,>80,1 to 10,>30,–
"CSCC[C@H](NC(=O)c1cccc(S(=O)(=O)C(C)C)c1)C(=O)Nc1nc(-c2ccccc2)cs1 [Compound 14, (S)-3-(isopropylsulfonyl)-N-(4-(methylthio)-1-oxo-1-((4-phenylthiazol-2-yl)amino)butan-2-yl)benzamide]",1 to 10,>80,> 10,>60,–
"CN(C)S(=O)(=O)c1cccc(C(=O)NCC(=O)Nc2nc(-c3ccc4c(c3)OCCO4)cs2)c1 [Compound 15, N-(2-((4-(2,3-dihydrobenzo[b][1,4]dioxin-6-yl)thiazol-2-yl)amino)-2-oxoethyl)-3-(N,N-dimethylsulfamoyl)benzamide]",1 to 10,>80,1 to 10,>60,–
"Cc1ccccc1-c1csc(NC(=O)CNC(=O)c2cccc(S(=O)(=O)N(C)C)c2)n1 [Compound 16, 3-(dimethylsulfamoyl)-N-[2-[[4-(o-tolyl)thiazol-2-yl]amino]-2-oxo-ethyl]benzamide]",1 to 10,>80,> 10,>60,–
"CCC[C@H](NC(=O)c1cccc(S(=O)(=O)N(C)C)c1)C(=O)Nc1nc(-c2ccccc2)cs1 [Compound 17, 3-(dimethylsulfamoyl)-N-[(1S)-1-[(4-phenylthiazol-2-yl)carbamoyl]butyl]benzamide]",1 to 10,>80,> 10,>60,–
"CN(C)S(=O)(=O)c1cccc(C(=O)NCC(=O)Nc2nc(-c3ccccc3Br)cs2)c1 [Compound 18, N-[2-[[4-(2-bromophenyl)thiazol-2-yl]amino]-2-oxo-ethyl]-3-(dimethylsulfamoyl)benzamide]",> 10,>80,> 10,>60,–
"Cc1ccc(C(=O)NCC(=O)Nc2nc(-c3ccccc3)cs2)cc1S(C)(=O)=O [Compound 19, 4-methyl-3-(methylsulfonyl)-N-(2-oxo-2-((4-phenylthiazol-2-yl)amino)ethyl)benzamide]",< 1,>70,> 10,>30,–
"COc1ccc(C(=O)N[C@@H](CCSC)C(=O)Nc2nc(-c3ccccc3)cs2)cc1S(C)(=O)=O [Compound 20, 4-methoxy-N-[(1S)-3-methylsulfanyl-1-[(4-phenylthiazol-2-yl)carbamoyl]propyl]-3-methylsulfonyl-benzamide]",> 10,>70,> 10,>60,–
"CC(=O)NC[C@H](NC(=O)c1cccc(S(=O)(=O)N(C)C)c1)C(=O)Nc1nc(-c2ccccc2)cs1 [Compound 21, (S)—N-(3-acetamido-1-oxo-1-((4-phenylthiazol-2-yl)amino)propan-2-yl)-3-(N,N-dimethylsulfamoyl)benzamide]",> 10,>70,> 10,>60,–
"CN(C)S(=O)(=O)c1cccc(C(=O)NCC(=O)Nc2nc(-c3ccc(CN)cc3)cs2)c1 [Compound 22, N-[2-[[4-[4-(aminomethyl)phenyl]thiazol-2-yl]amino]-2-oxo-ethyl]-3-(dimethylsulfamoyl)benzamide]",> 10,>70,> 10,>60,–
"CS(=O)(=O)c1cccc(C(=O)NCC(=O)Nc2nc(-c3ccccc3)cs2)c1 [Compound 23, 3-methylsulfonyl-N-[2-oxo-2-[(4-phenylthiazol-2-yl)amino]ethyl]benzamide]",1 to 10,>70,1 to 10,>50,–
"CSCC[C@H](NC(=O)c1cccc(S(=O)(=O)N(C)C)c1)C(=O)Nc1nc(-c2ccccc2)cs1 [Compound 24, (S)-3-(N,N-dimethylsulfamoyl)-N-(4-(methylthio)-1-oxo-1-((4-phenylthiazol-2-yl)amino)butan-2-yl)benzamide]",1 to 10,>70,–,>99,–
"CSCC[C@H](NC(=O)c1ccc2[nH]ccc2c1)C(=O)Nc1nc(-c2ccccc2)cs1 [Compound 83, (S)—N-(4-(methylthio)-1-oxo-1-((4-phenylthiazol-2-yl)amino)butan-2-yl)-1H-indole-5-carboxamide]",1 to 10,>90,–,–,–
"Cc1nnc(-c2cccc(-c3csc(NC(=O)CNC(=O)c4ccc(N)cc4)n3)c2)o1 [Compound 113, 4-amino-N-(2-((4-(3-(5-methyl-1,3,4-oxadiazol-2-yl)phenyl)thiazol-2-yl)amino)-2-oxoethyl)benzamide]",0.1 to 1,–,–,–,–
"Nc1ccc(C(=O)NCC(=O)Nc2nc(-c3cccc(-c4ccncc4)c3)cs2)cc1 [Compound 117, 4-amino-N-(2-oxo-2-((4-(3-(pyridin-4-yl)phenyl)thiazol-2-yl)amino)ethyl)benzamide]",< 0.1,–,–,–,–
"CSCC[C@@H](NC(=O)c1ccc(N)cc1)C(=O)Nc1nc(-c2cccc(-c3ccncc3)c2)cs1 [Compound 155, (R)-4-amino-N-(4-(methylthio)-1-oxo-1-((4-(3-(pyridin-4-yl)phenyl)thiazol-2-yl)amino)butan-2-yl)benzamide]",–,–,–,–,>80
"Cc1cc(-c2cccc(-c3csc(NC(=O)CNC(=O)c4ccc(N)cc4)n3)c2)on1 [Compound 231, 4-amino-N-[2-[[4-[3-(3-methylisoxazol-5-yl)phenyl]thiazol-2-yl]amino]-2-oxo-ethyl]benzamide]",0.1 to 1,–,–,–,–
